These results are taken from publication PMC4261083, “An atypical residue in the pore of Varroa destructor GABA-activated RDL receptors affects picrotoxin block and thymol modulation” (Insect Biochemistry and Molecular Biology, 2014).

Where a chain is given by its changes, count along the chain named.

Experiment in all cases: GABA activation of RDL receptors, two electrode voltage clamp in Xenopus oocytes
Format in all cases: cell-based

In test [1] the target is T1, A20′S mutant Drosophila RDL receptor (Drosophila melanogaster, UniProt P25123, A319S).
T1 construct: expressed in transfected cells; host or cells: Xenopus laevis oocytes injected with cRNA
T1 sequence (P25123 45-606 A319S): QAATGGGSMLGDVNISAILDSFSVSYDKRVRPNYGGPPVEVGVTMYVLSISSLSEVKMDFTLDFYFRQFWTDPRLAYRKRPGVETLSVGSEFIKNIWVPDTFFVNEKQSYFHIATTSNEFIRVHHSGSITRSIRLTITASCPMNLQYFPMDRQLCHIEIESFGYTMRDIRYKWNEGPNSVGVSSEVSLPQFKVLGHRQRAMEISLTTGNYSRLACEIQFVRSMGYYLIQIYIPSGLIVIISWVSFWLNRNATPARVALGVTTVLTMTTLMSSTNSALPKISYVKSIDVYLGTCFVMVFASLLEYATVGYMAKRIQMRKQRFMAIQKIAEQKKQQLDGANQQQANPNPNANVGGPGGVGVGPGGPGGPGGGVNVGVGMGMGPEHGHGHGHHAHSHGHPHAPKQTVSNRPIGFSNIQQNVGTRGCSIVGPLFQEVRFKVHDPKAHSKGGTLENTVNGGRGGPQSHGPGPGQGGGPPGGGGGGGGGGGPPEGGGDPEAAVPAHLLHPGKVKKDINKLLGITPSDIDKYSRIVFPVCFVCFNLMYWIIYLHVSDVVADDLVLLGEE
As for the experimental part: (§1) X. laevis oocyte-positive females were purchased from NASCO (Fort Atkinson, Wisconsin, USA) and maintained according to standard methods. Harvested stage V-VI Xenopus oocytes were washed in four changes of ND96 (96 mM NaCl, 2 mM KCl, 1 mM MgCl2, 1 mM CaCl2, 5 mM HEPES, pH 7.5), de-folliculated in 1.5 mg ml^−1 collagenase Type 1A for approximately 2 h, washed again in four changes of ND96 and stored in ND96 containing 2.5 mM sodium pyruvate, 0.7 mM theophylline and […].
(§2) Site directed mutagenesis was performed with the QuikChange mutagenesis kit (Agilent, La Jolla, CA). cRNA was transcribed in vitro from linearised pGEMHE cDNA template using the mMessage mMachine T7 Transcription kit (Ambion, Austin, Texas, USA). Stage V and VI oocytes were injected with 5 ng cRNA, incubated at 18 °C, and currents recorded 18–24 h post-injection.
(§3) Currents were recorded at 5 kHz and filtered at a frequency of 1 kHz. Micro-electrodes were fabricated from borosilicate glass (GC120TF-10, Harvard Apparatus, Edenbridge, Kent, UK) using a one stage horizontal pull (P-87, Sutter Instrument Company, California, USA) and filled with 3 M KCl. […] Oocytes were perfused with ND96 at a constant rate of 12 ml min^−1. Drug application was via a simple gravity fed system calibrated to run at the same rate.
(§4) Analysis and curve fitting was performed using Prism v5 (GraphPad Software, San Diego, California, USA). Concentration-response data for each oocyte was normalised to the maximum current for that oocyte. The mean and S.E.M. for a series of oocytes were fitted to the four parameter logistic equation in Prism.

Test [2] concerns the target T2, A21′Q mutant Drosophila RDL receptor (Drosophila melanogaster, UniProt P25123, A320Q).
T2 construct: expressed in transfected cells; host or cells: Xenopus laevis oocytes injected with cRNA
T2 sequence (P25123 45-606 A320Q): T1 sequence (P25123 45-606 A319S) with S275A, A276Q
As for the experimental part:
as §1, §2, §3, §4

The target of test [3] is T3, wild type Drosophila RDL receptor (Drosophila melanogaster, UniProt P25123).
T3 construct: expressed in transfected cells; host or cells: Xenopus laevis oocytes injected with cRNA
T3 sequence (P25123 45-606): T1 sequence (P25123 45-606 A319S) with S275A
On the procedure: as §1, §2, §3, §4

Take `NCCCC(=O)O` [GABA]: the “GABA nH (Hill slope)” value in test [1] is on record as 1.6 ± 0.4; in test [2], 1.9 ± 0.4; in test [3] it was 1.6 ± 0.5.
